Compound in the first assay: CC(=O)c1c(C)c2cnc(Nc3ccc(N4CCNCC4)cn3)nc2n(C2CCCC2)c1=O
In words: GR value, 72 h; higher = faster growth (1 = untreated, <0 = killing).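 Note: breast cancer and non-malignant breast epithelial lines, nine half-log doses, viable cells counted by Hoechst and LIVE/DEAD dye imaging versus time-zero plates and DMSO controls.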 The conditions noted are these: 0.003162 µM.
Turning to SUM185PE, the GR value turned out to be 0.956 GR.
Same read-out and setting: the figure for SUM1315 is 0.938 GR.

The same assay, now with this note: 0.01 µM.
CAL851: the GR value is 1.09 GR.
Same read-out and setting: in the case of HCC202 it was 0.913 GR; in that of HCC1428, 0.874 GR; in that of HCC1500, 1.11 GR.
Still for that read-out and setting: in the case of MDAMB157 it was 1.08 GR; in that of MDAMB361, 0.78 GR; in that of SUM185PE, 0.996 GR.
In the case of SUM1315, the GR value came out at 0.855 GR.

The assay is the same for the next values; noted with them: 0.03162 µM.
Take CAL851: the GR value was 1.17 GR.
As to HCC202, the GR value is 0.889 GR.
The same measure, in the same setting: the figure for HCC1428 is 0.729 GR; for HCC1500 it is 0.838 GR.
The same measure, in the same setting: in the case of MDAMB157 it was 1.02 GR; in that of MDAMB361, 0.319 GR; in that of SUM185PE, 0.96 GR.
Still for that read-out and setting: the figure for SUM1315 is 0.593 GR.

The assay is the same for the next values; noted with them: 0.1 µM.
With CAL851, the GR value worked out at 1.06 GR.
In the case of HCC202, the GR value turned out to be 0.798 GR.
Same read-out and setting: in the case of HCC1428 it was 0.434 GR; in that of HCC1500, 0.676 GR.
Still for that read-out and setting: in the case of MDAMB157 it was 1.02 GR.
Same read-out and setting: the figure for MDAMB361 is 0.172 GR; for SUM185PE it is 0.923 GR.
For the cell line SUM1315, the GR value is 0.522 GR.

The same assay, now with this note: 0.3162 µM.
As for CAL851, the GR value came out at 0.993 GR.
HCC202: the GR value amounted to 0.851 GR.
In the case of HCC1428, the GR value stood at 0.313 GR.
The same measure, in the same setting: in the case of HCC1500 it was 0.581 GR; in that of MDAMB157, 0.965 GR; in that of MDAMB361, 0.0854 GR.
Regarding SUM185PE, the GR value is 0.781 GR.
Still for that read-out and setting: in the case of SUM1315 it was 0.365 GR.

Staying with this assay, now noted: 1 µM.
Turning to CAL851, the GR value is 1.07 GR.
On the same count and under the same terms, the figure for HCC202 is 0.753 GR; for HCC1428 it is 0.247 GR.
The same measure, in the same setting: in the case of HCC1500 it was 0.709 GR; in that of MDAMB157, 1.05 GR.
Same read-out and setting: in the case of MDAMB361 it was 0.151 GR.
With SUM185PE, the GR value amounted to 0.86 GR.
The same measure, in the same setting: the figure for SUM1315 is 0.417 GR.

The assay is the same for the next values; noted with them: 3.162 µM.
As to CAL851, the GR value came out at 1.07 GR.
Still for that read-out and setting: the figure for HCC202 is 0.693 GR; for HCC1428 it is 0.268 GR.
On the same count and under the same terms, in the case of HCC1500 it was 0.592 GR; in that of MDAMB157, 0.991 GR; in that of MDAMB361, 0.184 GR.
Same read-out and setting: in the case of SUM185PE it was 0.754 GR.
On to SUM1315, for which the GR value worked out at 0.293 GR.

Compound in a further assay: CN1CC[C@H](c2c(O)cc(O)c3c(=O)cc(-c4ccccc4Cl)oc23)[C@H](O)C1 [Flavopiridol]
The assay is described as above. The conditions noted are these: 0.0001 µM.
For the cell line CAL851, the GR value is 1.04 GR.
Still for that read-out and setting: the figure for HCC202 is 1.09 GR.
Still for that read-out and setting: in the case of MDAMB361 it was 1.05 GR; in that of SUM185PE, 1 GR.
Same read-out and setting: the figure for SUM1315 is 1.09 GR.

The assay is the same for the next values; noted with them: 0.0003162 µM.
CAL851: the GR value was determined as 1.01 GR.
The same measure, in the same setting: in the case of HCC202 it was 1.05 GR; in that of MDAMB361, 0.905 GR.
For the cell line SUM185PE, the GR value was 0.883 GR.
As for SUM1315, the GR value was 0.97 GR.

Still in this assay, the particulars now being: 0.001 µM.
As to CAL851, the GR value came to 0.961 GR.
On the same count and under the same terms, in the case of HCC202 it was 0.845 GR; in that of MDAMB361, 0.752 GR.
The same measure, in the same setting: in the case of SUM185PE it was 0.776 GR; in that of SUM1315, 0.741 GR.

The same assay, now with this note: 0.003162 µM.
With CAL851, the GR value is 0.874 GR.
The same measure, in the same setting: in the case of HCC202 it was 0.773 GR.
On the same count and under the same terms, the figure for MDAMB361 is 0.73 GR; for SUM185PE it is 0.933 GR.
On the same count and under the same terms, in the case of SUM1315 it was 0.795 GR.

Staying with this assay, now noted: 0.01 µM.
For CAL851, the GR value amounted to 0.718 GR.
Still for that read-out and setting: the figure for HCC202 is 0.976 GR.
Turning to MDAMB361, the GR value was found to be 0.942 GR.
The same measure, in the same setting: in the case of SUM185PE it was 0.845 GR.
The same measure, in the same setting: in the case of SUM1315 it was 0.876 GR.

The assay is the same for the next values; noted with them: 0.03162 µM.
For CAL851, the GR value came to 0.906 GR.
Consider HCC202, for which the GR value stood at 0.893 GR.
MDAMB361: the GR value was found to be 0.753 GR.
Still for that read-out and setting: the figure for SUM185PE is 0.58 GR.
On the same count and under the same terms, in the case of SUM1315 it was 0.76 GR.

Staying with this assay, now noted: 0.1 µM.
Regarding CAL851, the GR value came to 0.823 GR.
The same measure, in the same setting: in the case of HCC202 it was 0.68 GR; in that of MDAMB361, 0.562 GR; in that of SUM185PE, 0.632 GR.
The same measure, in the same setting: in the case of SUM1315 it was 0.647 GR.

The assay is the same for the next values; noted with them: 0.3162 µM.
Take CAL851: the GR value was -0.005 GR.
Consider HCC202, for which the GR value amounted to 0.24 GR.
The same measure, in the same setting: the figure for MDAMB361 is -0.0494 GR.
Still for that read-out and setting: the figure for SUM185PE is 0.458 GR; for SUM1315 it is -0.451 GR.

The assay is the same for the next values; noted with them: 1 µM.
For the cell line CAL851, the GR value was -0.159 GR.
As for HCC202, the GR value was 0.0609 GR.
With MDAMB361, the GR value was -0.402 GR.
With SUM185PE, the GR value worked out at 0.132 GR.
Same read-out and setting: in the case of SUM1315 it was -0.887 GR.

Compound in another assay: C=CC(=O)Nc1ccc(C(=O)Nc2[nH]nc3c2CN(C(=O)N[C@H](CN(C)C)c2ccccc2)C3(C)C)cc1 [YKL-5-124]
The assay is described as above. As to conditions: 0.001 µM.
As to CAL851, the GR value is 0.137 GR.
The same measure, in the same setting: the figure for HCC202 is 0.459 GR.
As for MDAMB361, the GR value was found to be 0.264 GR.
Still for that read-out and setting: in the case of SUM185PE it was 0.7 GR; in that of SUM1315, 0.771 GR.

The assay is the same for the next values; noted with them: 0.003162 µM.
CAL851: the GR value was -0.128 GR.
On the same count and under the same terms, in the case of HCC202 it was 0.432 GR.
On the same count and under the same terms, the figure for MDAMB361 is 0.0247 GR; for SUM185PE it is 0.648 GR; for SUM1315 it is 0.514 GR.

Still in this assay, the particulars now being: 0.01 µM.
In the case of CAL851, the GR value was -0.137 GR.
HCC202: the GR value is 0.377 GR.
On the same count and under the same terms, the figure for MDAMB361 is -0.0567 GR.
Same read-out and setting: the figure for SUM185PE is 0.517 GR; for SUM1315 it is 0.439 GR.

Staying with this assay, now noted: 0.03162 µM.
For CAL851, the GR value is -0.128 GR.
Consider HCC202, for which the GR value came out at 0.409 GR.
Same read-out and setting: in the case of MDAMB361 it was -0.0052 GR; in that of SUM185PE, 0.469 GR; in that of SUM1315, 0.478 GR.

Still in this assay, the particulars now being: 0.1 µM.
Turning to CAL851, the GR value was -0.177 GR.
Same read-out and setting: the figure for HCC202 is 0.291 GR.
On the same count and under the same terms, the figure for MDAMB361 is -0.0751 GR; for SUM185PE it is 0.434 GR.
For SUM1315, the GR value came out at 0.393 GR.

Still in this assay, the particulars now being: 0.3162 µM.
Consider CAL851, for which the GR value was -0.275 GR.
On the same count and under the same terms, the figure for HCC202 is 0.228 GR.
The same measure, in the same setting: in the case of MDAMB361 it was -0.226 GR.
The same measure, in the same setting: in the case of SUM185PE it was 0.474 GR.
As to SUM1315, the GR value was found to be 0.264 GR.

For the origin of these results see the supplement of paper PMC9663587.
